Experimental data as given in patent US5001141A, “N-(2-(2-oxo-1-imidazolidinyl)ethyl)-3-phenyl-urea and analogs as agents for induction of antioxidant enzymes” (E. I. Du Pont de Nemours and Company, priority 1989, dated 1991).
Each block holds one compound with its values, some of them ahead of it.

Legend:
[1] = test system: superoxide dismutase (SOD); assay: SOD activity in Gin-1 human gingival fibroblasts; type: cell-based; conditions: Gin-1 cells; for SOD % Increase: vs untreated
Procedure: (§1) 1. In vitro Administration of compounds of Examples 1 or 2 (Compound 1 and Compound 2, respectively).
(§2) Two different cell types, human gingival fibroblasts (Gin-1) and bovine aortic endothelial cells (CPA ATCl CCL207) were obtained from the American Type Culture Collection. They were incubated until confluent in Dulbecco's modified Eagles medium, supplemented with 2 mM glutamine and 10% heat-inactivated fetal calf serum at 37° C. in a humidified chamber with 5% CO2 in air. Compounds were dissolved in DMSO, diluted to 100 mM with distilled deionized H2 O, and further diluted with Dulbecco's medium (without fetal bovine serum), to desired concentrations. The usual time of incubation with the compounds of this invention was 24 hr at 37° C. in a humidified incubator with 5% CO2 in air. Lactic dehydrogenase (LDH) release was determined in several in vitro preparations as an index of cytotoxicity. using Sigma Diagnostic Kit #500. LDH release was expressed as a percentage of total LDH activity released from cells treated with 0.4% Triton X [Cabaud, P. G., Wroblewski, F. Am. J. Clin. Pathol. 30:234-236, (1958)].
(§3) Prior to the enzymatic assays the Gin-1 cells and aortic endothelial cells were prepared as follows: cells were rinsed several times with phosphate buffered saline without Ca^+2 or Mg^+2, removed from the culture flasks with 0.25% trypsin, counted using a hemocytometer, and resuspended at 2-3×10^6 cells/ml in Dulbecco's medium without fetal calf serum. Cells were then disrupted by pulse sonication and centrifuged at 100,000 xg at 4° C. Total protein [Bradford, M. M., Anal. Biochem 72:248-254, (1976)] and enzyme activities were determined on the cell sonicates, using standard techniques, SOD activity was determined using the method of McCord and Fridovich [McCord, J., Fridovich I., J. Biol. Chem. 244:6049-6055, (1969)]. Catalase activity was measured using the method of Beers and Sizer [Beers, R. F., Sizer, I. W., J. Biol. Chem. 195:133-146, (1952)]. Glutathione peroxidase activity was determined by the method of Guenzler et al. [Guenzler, W. A., Kremers, H., Flohe, L., Z. Klin. Chem. Klin. Biochem. 12:444-448 (1974)].
(§4) All enzyme activities were expressed as units of activity per mg protein. The data were compared by Student's t test [Snedecor, W. G., Statistical Methods, p. 45, (1964)]. The level of significance was taken as p<0.05.

catalase (CAT) [2] = assay: Catalase activity in Gin-1 human gingival fibroblasts; type: cell-based; conditions: Gin-1 cells; for CAT % Increase: vs untreated
Procedure: as §1, §2, §3, §4

[3] = test system: glutathione peroxidase (GSH-PX); assay: Glutathione peroxidase activity in Gin-1 human gingival fibroblasts; type: cell-based; conditions: Gin-1 cells
Procedure: as §1, §2, §3, §4

[4] = LDH release from Gin-1 cells as index of cytotoxicity; type: cell-based, human; conditions: human, % of total LDH released by 0.4% Triton X, mean ± SEM
Procedure: as §2

Gin-1 cells = assay: as above; type: cell-based, human
Procedure: as §2

[5] = test system: superoxide dismutase (SOD); assay: SOD activity in bovine aortic endothelial cells; type: cell-based; conditions: for SOD activity: n = 10, mean ± SEM, * P < 0.05 vs 0 mM
Procedure: as §1, §2, §3, §4

catalase (CAT) [6] = assay: Catalase activity in bovine aortic endothelial cells; type: cell-based; conditions: for CAT activity: n = 6, mean ± SEM
Procedure: as §1, §2, §3, §4

[7] = test system: glutathione peroxidase (GSH-PX); assay: Glutathione peroxidase activity in bovine aortic endothelial cells; type: cell-based; conditions: for GSH-PX activity: n = 6, mean ± SEM
Procedure: as §1, §2, §3, §4

[8] = test system: superoxide dismutase (SOD); assay: SOD activity in rat heart, liver and lung after in vivo treatment
Procedure: Male Lewis rats (250 g) were injected with 0.9% saline (controls) or Compound 1 (100 mg/kg) intraperitoneally twice a day for two days. Heart, liver and lungs were removed en bloc, dissected free of extraneous tissue, and blotted dry to remove contaminating blood. A portion of each tissue (approximately 0.5 g) was homogenized, and centrifuged at 500 xg for 10 minutes at 4° C. A 2 ml aliquot of supernatant was removed and centrifuged at 25,000 xg for 30 minutes. The supernatants were then decanted, and analyzed for SOD and CAT activities and total protein as described above.
as §4

[9] = test system: polymorphonuclear leukocyte infiltration into ozone-exposed rat lungs; conditions: Bassett et al. 1988; cited from earlier work
[10] = test system: superoxide dismutase (SOD) and catalase (CAT); assay: Induction of antioxidant enzymes SOD and CAT in mammalian cells and in organs of rats; conditions: Gin-1 cells, 1.0 mM, 24 hours; either SOD or CAT, or both enzymes
Procedure: as §1, §2
as §3, with “Cells were then disrupted by pulse sonication and centrifuged at 100,000 xg at 4° C.” left out, “Chem. Klin. Biochem. 12:444-448 (1974)].” left out
All enzyme activities were expressed as units of activity per mg protein. […]

[11] = Compound 2, at one or more concentrations

- GSH-PX activity (in words) [3]: remained constant
SMILES: O=C(NCCN1CCNC1=O)Nc1ccc(F)cc1 [Compound 2, 1-[2-(2-oxo-1-imidazolidinyl)ethyl]-3-(4-fluorophenyl)urea]
- SOD activity ([1]; 0.25 mM, n = 8, mean ± SEM, * P < 0.05 vs 0 mM): 15.2 ± 1.6 U/mg Protein
- SOD activity ([1]; 0.50 mM, n = 8, mean ± SEM, * P < 0.05 vs 0 mM): 15.9 ± 1.7 U/mg Protein
- SOD activity ([1]; 1.0 mM, n = 8, mean ± SEM, * P < 0.05 vs 0 mM): 14.5 ± 2.2 U/mg Protein
- SOD activity (in words) [1, 11]: significantly increased (P<0.05) at one or more concentrations
- CAT activity (catalase (CAT) [2]; 0.25 mM, n=6, mean ± SEM): 8.3 ± 0.8 U/mg Protein
- CAT activity (catalase (CAT) [2]; 0.50 mM, n = 6, mean ± SEM, * P < 0.05 vs 0 mM): 11.4 ± 1.8 U/mg Protein
- CAT activity (catalase (CAT) [2]; 1.0 mM, n=6, mean ± SEM): 9.5 ± 1.4 U/mg Protein
- CAT activity (in words) (catalase (CAT) [2]; [11]): significantly increased (P<0.05) at one or more concentrations
- GSH-PX activity ([3]; Compound 2 table, 0.25 mM, n = 6, mean ± SEM): 35.0 ± 1.4 U/mg Protein
- GSH-PX activity ([3]; Compound 2 table, 0.50 mM, n = 6, mean ± SEM): 40.0 ± 4.7 U/mg Protein
- GSH-PX activity ([3]; Compound 2 table, 1.0 mM, n = 6, mean ± SEM): 39.1 ± 4 U/mg Protein

- Effect on SOD activity, ranking among Ex. 7, 11, 12 (in words) ([1]; 1.0 mM, 24 hours): least effect on SOD activity
- Effect on CAT activity, ranking among Ex. 7, 11, 12 (in words) (catalase (CAT) [2]; 1.0 mM, 24 hours): affected CAT the most
SMILES: O=C(NCCN1CCNC1=S)Nc1ccccc1 [Example 11]
- SOD activity ([1]; 1.0 mM, 24 hours, Table 5): 4.0 ± 0.8 U/mg Protein
- SOD % Increase ([1]; 1.0 mM, 24 hours): 3%
- CAT activity (catalase (CAT) [2]; 1.0 mM, 24 hours, Table 5): 4.1 ± 1.6 U/mg Protein
- CAT % Increase (catalase (CAT) [2]; 1.0 mM, 24 hours): 118%
- SOD and/or CAT activity (in words) [10]: increased

- Effect on SOD activity, ranking among Ex. 7, 11, 12 (in words) ([1]; 1.0 mM, 24 hours): greatest effect on SOD
- Effect on CAT activity, ranking among Ex. 7, 11, 12 (in words) (catalase (CAT) [2]; 1.0 mM, 24 hours): least effect on CAT
SMILES: O=C(Nc1ccccc1)NN1CCCOC1=O [Example 12]
- SOD activity ([1]; 1.0 mM, 24 hours, Table 5): 6.5 ± 0.9 U/mg Protein
- SOD % Increase ([1]; 1.0 mM, 24 hours): 69%
- CAT activity (catalase (CAT) [2]; 1.0 mM, 24 hours, Table 5): 2.5 ± 0.6 U/mg Protein
- CAT % Increase (catalase (CAT) [2]; 1.0 mM, 24 hours): 35%
- SOD and/or CAT activity (in words) [10]: increased

Continued, compound first:

SMILES: O=C(NCCN1CCNC1=O)Nc1ccccc1 [Compound 1, 1-[2-(2-oxo-1-imidazolidinyl)ethyl]-3-phenylurea]
- SOD activity ([1]; 0.125 mM, n=7, mean ± SEM, * P < 0.05 vs 0 mM): 13.1 ± 1.5 U/mg Protein
- SOD activity ([1]; 0.25 mM, n=7, mean ± SEM, * P < 0.05 vs 0 mM): 20.7 ± 3.3 U/mg Protein
- SOD activity ([1]; 1.0 mM, n=7, mean ± SEM, * P < 0.05 vs 0 mM): 11.6 ± 1.4 U/mg Protein
- SOD activity ([1]; 2.0 mM, n=7, mean ± SEM, * P < 0.05 vs 0 mM): 13.5 ± 1.7 U/mg Protein
- SOD activity compared with controls (in words) ([1]; 0.125-2.0 mM Compound 1): significantly increased (P<0.05)
- CAT activity (catalase (CAT) [2]; 0.125 mM, n=4, mean ± SEM, * P < 0.05 vs 0 mM): 9.1 ± 1.1 U/mg Protein
- CAT activity (catalase (CAT) [2]; 0.25 mM, n=4, mean ± SEM, * P < 0.05 vs 0 mM): 10.0 ± 1.8 U/mg Protein
- CAT activity (catalase (CAT) [2]; 1.0 mM, n=4, mean ± SEM, * P < 0.05 vs 0 mM): 11.2 ± 2.0 U/mg Protein
- CAT activity (catalase (CAT) [2]; 2.0 mM, n=4, mean ± SEM, * P < 0.05 vs 0 mM): 13.9 ± 1.6 U/mg Protein
- CAT activity compared with controls (in words) (catalase (CAT) [2]; 0.125-2.0 mM Compound 1): significantly increased (P<0.05)
- GSH-PX activity (in words) [3]: remained constant
- GSH-PX activity ([3]; 0.125 mM, n=6, mean ± SEM): 52.1 ± 4.7 U/mg Protein
- GSH-PX activity ([3]; 0.25 mM, n=6, mean ± SEM): 45.8 ± 3.5 U/mg Protein
- GSH-PX activity ([3]; 1.0 mM, n=6, mean ± SEM): 45.1 ± 5.3 U/mg Protein
- GSH-PX activity ([3]; 2.0 mM, n=6, mean ± SEM): 47.8 ± 3.8 U/mg Protein
- cytotoxicity at 24 h, 125 µM ([4]; 0.125 mM): 7 ± 2%
- cytotoxicity at 24 h, 1000 µM ([4]; 1.0 mM): 8 ± 2%
- Cytotoxicity as shown by LDH release (in words) (Gin-1 cells): no indication of cytotoxicity
- SOD activity ([5]; 0.05 mM (so in the source)): 9.5 ± 1.8 U/mg Protein
- SOD activity ([5]; 0.25 mM): 6.7 ± 0.8 U/mg Protein
- SOD activity ([5]; 1.0 mM): 12.2 ± 3.4 U/mg Protein
- SOD activity (in words) ([5]; concentration-dependent): significantly increased (P<0.05) in a concentration-dependent manner
- CAT activity (catalase (CAT) [6]; 0.05 mM (so in the source)): 27.1 ± 3.3 U/mg Protein
- CAT activity (catalase (CAT) [6]; 0.25 mM): 25.7 ± 3.6 U/mg Protein
- CAT activity (catalase (CAT) [6]; 1.0 mM, * P < 0.05 vs 0 mM): 31.9 ± 2.4 U/mg Protein
- Catalase activity (in words) (catalase (CAT) [6]; highest concentration (1 mM) only): significantly increased at the highest concentration (1 mM) only
- GSH-PX activity (in words) [7]: not significantly different
- GSH-PX activity ([7]; 0.05 mM (so in the source)): 33.5 ± 3.2 U/mg Protein
- GSH-PX activity ([7]; 0.25 mM): 28.1 ± 5.7 U/mg Protein
- GSH-PX activity ([7]; 1.0 mM): 59.8 ± 17 U/mg Protein
- Tissue SOD Activity, Heart ([8]; rat heart, 100 mg/kg i.p. 2 × /day for 2 days, (8), mean ± SEM, * P < 0.05 vs saline control): 194 ± 14 U/mg Protein
- SOD activity in all three tissues (in words) ([8]; rat heart, liver, lung, compared with controls): induced SOD activity in all three tissues studied
- Tissue SOD Activity, Liver ([8]; rat liver, 100 mg/kg i.p. 2 × /day for 2 days, (8), mean ± SEM, * P < 0.05 vs saline control): 444 ± 68 U/mg Protein
- Tissue SOD Activity, Lung ([8]; rat lung, 100 mg/kg i.p. 2 × /day for 2 days, (8), mean ± SEM, * P < 0.05 vs saline control): 134 ± 7 U/mg Protein
- Polymorphonuclear leukocyte infiltration into ozone-exposed rat lungs [9]: decreased polymorphonuclear leukocyte infiltration

SMILES: O=C(NCCN1CCNC1=O)Nc1ccc(Cl)cc1 [Example 7]
- SOD activity ([1]; 1.0 mM, 24 hours, Table 5): 5.8 ± 1.2 U/mg Protein
- SOD % Increase ([1]; 1.0 mM, 24 hours): 51%
- CAT activity (catalase (CAT) [2]; 1.0 mM, 24 hours, Table 5): 3.6 ± 0.9 U/mg Protein
- CAT % Increase (catalase (CAT) [2]; 1.0 mM, 24 hours): 95%
- SOD and/or CAT activity (in words) [10]: increased
